How the values were obtained:
[1] = tested on: foals, yearlings and adult horses; experiment: Example Five: calcium feeding trials at various stages of development; type: in vivo, horse
Method: A number of trials were conducted on horses throughout various stages of development fed with varying levels of calcium. The first two trials were conducted on twelve foals over a nine month period. The trial began when the foals were aged three months. […] Each foal was fed 2.5 g of Calcium a day within a balanced diet for a period of three months. The Calcium dosage was then increased to 5.0 g a day for a further period of six months as the foals average weight had increased to 240 kg.
The third trial comprised a group of ten yearlings with average weight 425 kg body. The yearlings were fed 7.5 g of Calcium a day over a period of ten weeks. The fourth trial was conducted on adult horses with average body weight of 500 kg aged 18+ months. Each adult horse was fed 10.0 g of Calcium per day.

horses [2] = experiment: Example One: amino acid feeding trial with varied lysine; PCV, haemoglobin, coat colour, racecourse performance; type: in vivo, horse; details: 15 g/day lysine with 5 g/day methionine and 5 g/day threonine
Method: Lysine, methionine and threonine are essential amino acids. Trials were conducted on eleven horses (eight geldings and three fillies) where the horses were randomly split into three groups. Two groups contained four horses and the third group contained three horses. The horses varied in age between three and eight years old with an average body weight of 500 kg. The Packed Cell Volumes (PCVs) and haemoglobin levels of each horse were tested. Visual observations such as coat colour and racecourse performances were also monitored. In these Example all three amino acids were administered to the horses together as all three amino acids are essential. The quantities of methionine and threonine were constant for each group whilst the quantity of lysine was varied between the groups. Oats are deficient in lysine therefore it is necessary to boost the horses intake of lysine while maintaining a constant level of methionine and threonine
Quantities of Amino Acid Administered to Horses Daily

horses [3] = experiment: Example Four: magnesium supplementation, Stress Tetany and performance; type: in vivo, horse
From the text: Magnesium is considered to be an essential daily mineral in equine diets. A deficiency of magnesium in the diet in conjunction with any condition that will produce stress can lead to Stress Tetany. An example of a stress-causing condition is transportation of the horse over long distances. […] Some weeks later the same horse was transported to another location. The journey lasted approximately four hours.
Trials conducted where the quantity of magnesium introduced into the horse was varied from 2 g/day of magnesium oxide to 4 g/day of magnesium oxide.

[4] = tested on: poor performing racehorses; details: six anaemic racehorses, within a matter of weeks; cited from earlier work
thoroughbred yearlings = experiment: Example Three: inorganic versus chelated copper with chelated zinc in feed supplement; type: in vivo, horse; details: 100 mg/day copper and 300 mg/day chelated zinc in 100 g/day supplement, ten weeks, grass high in molybdenum
Method: A trial was conducted on ten thoroughbred yearlings (six colts and four fillies) using optimum levels of copper and zinc. The horses were divided into two groups with five horses in each group. The trials were conducted over a period of ten weeks. During this period the horses were stabled, each horse was handwalked for one hour a day and put to grass for three hours a day.
The copper used in the feed supplement for the first group of five horses was inorganic copper, copper sulfate whilst the copper used in the oat-balancing feed supplement for the second group was chelated copper. The horses has an average body weight of 425 kg. The horses were fed a combined diet of Ryegrass Hay, Rolled Irish Oats, Cooked Flaxseed and the feed supplement.
In trial one, 100 g of the oat balancing feed supplement was fed to each horse daily. There was 100 mg of inorganic copper in present in the oat balancing feed supplement.
Group 1: 100 mg/day Inorganic Copper & 300 mg/day Chelated Zinc
In the second group the five horses were fed the same combined diet however the copper present in the feed supplement was chelated copper. Again there was 100 mg of copper present in 100 g of the oat balancing feed supplement.
Group 2: 100 mg/day Chelated Copper & 300 mg/day Chelated Zinc

[Ca+2] [Calcium]
bone development, limb formation and weight gain ([1]; 2.5 to 10.0 g/day Calcium according to age): clinically adequate bone development, correct limb formation and normal weight gain | Average weight at 6 months ([1]; Foals 3-6 months, 2.5 g/day Calcium, 118 Kg at 3 months): 240 Kg at 6 months | Average weight at 12 months ([1]; Foals 6-12 months, 5.0 g/day Calcium, 240 Kg at 6 months): 375 Kg at 12 months | Average weight at 18 months ([1]; Yearlings 12-18 months, 7.5 g/day Calcium, 375 Kg at 12 months): 475 Kg at 18 months

NCCCC[C@H](N)C(=O)O [lysine]
coat colour and racecourse performance (horses [2]): optimum coat colour and racecourse performance | PCV levels (horses [2]; average of horses, 500 kg): > 42 per cent per liter | haemoglobin levels (horses [2]; average of horses, 500 kg): > 14 g per deciliter

[O]=[Mg] [magnesium oxide]
performance (horses [3]; 4 g/day of magnesium oxide (varied from 2 g/day to 4 g/day)): optimum performance | temperament, weight and coat colour (horses [3]; magnesium oxide 4 g/day): improvement in the temperament of the horse was observed in conjunction with weight gain and better coat colour

N[C@@H](Cc1cc(I)c(Oc2cc(I)c(O)c(I)c2)c(I)c1)C(=O)O [Thyroxine]
red cell parameters [4]: all elevated

O=S(=O)([O-])[O-].[Cu+2] [Inorganic Copper, copper sulfate]
coat colour (thoroughbred yearlings): poor coat colour | red cell production (thoroughbred yearlings): decreased red cell production | thrive (thoroughbred yearlings): lack of thrive
